One may read the log P as the decadic logarithm of the partition coefficient of the neutral form, usually between octanol and water. The term AUC(0-inf) denotes the area under the concentration-time curve extrapolated to infinity. A higher AUC(0-inf) goes with more exposure. By AUC(0-t) is commonly meant the area under the concentration-time curve up to a stated or last time point. A low value points to less exposure. As a reminder, the Cmax is the highest concentration seen after dosing. As usually defined, the Tmax is the time from dosing to the highest level. By half-life is commonly meant the time in which the quantity being followed falls by half. High values mean slow loss, low ones fast loss.

Marks after values point to notes of the source that are not given here.

The text below walks through data of US11197828B2, “Solid oral dosage form of lipophilic compounds” (SOLURAL PHARMA APS, priority 2014, dated 2021).

For data set [1] the following is noted: cited from earlier work.
The conditions of data set [2]: oral 60 mg paclitaxel equivalents/animal, fasted male beagle dogs (N = 4).
Procedure: (§1) The study was a randomized, balanced, single dose, parallel group study in Beagle dogs comparing pharmacokinetics in fasted state of capsules containing C11-paclitaxel and DHA-paclitaxel, respectively in SEDDS formulation S2 (see Table 1).
(§2) The strength of each capsule was 12.5 mg of paclitaxel equivalents for the C-11 paclitaxel capsule and 10 mg of paclitaxel equivalents for the DHA-paclitaxel. The total oral dosage provided was 75 mg calculated as parent compound for paclitaxel and C11-paclitaxel, respectively and 60 mg calculated as parent compound for DHA-paclitaxel.
(§3) The dogs were deprived of food from late afternoon the day prior dosing. The capsule was put directly on the aditus laryngis of the dog to ensure that the capsule is not chewed but swallowed whole. All dogs received totally 100 ml of water immediately following the dosing.
(§4) Blood samples (approximately ˜0.5 mL) were taken from each animal at each dosing occasion on 10 time points up to 24 hours after dosing including a pre-dose.
(§5) The pharmacokinetic parameters calculated are i.e. total exposure, or area under the concentration-time curve (AUC0-inf, AUC0-t), peak exposure (Cmax), time to peak exposure (Tmax), terminal half-life t1/2 and the conversion rate from prodrug to parent.
The nature of another data set: in vivo. The note with it: male, beagle, dog, blood, po, 75 mg.
The conditions of data set [3]: excessive first pass metabolism; cited from earlier work.

Procedure for in vivo: as §1, §2, §3, §4, §5

For the molecule `CC(=O)O[C@H]1CC[C@@]2(C)C(=CC[C@@H]3[C@@H]2CC[C@]2(C)C(c4cccnc4)=CC[C@@H]32)C1` [Abiraterone acetate], in data set [1], the “log P” value is listed as 5.1.

With `C[C@@H](O)[C@@H]1NC(=O)[C@H](CCCCN)NC(=O)[C@@H](Cc2c[nH]c3ccccc23)NC(=O)[C@H](Cc2ccccc2)NC(=O)[C@@H](NC(=O)[C@H](N)Cc2ccccc2)CSSC[C@@H](C(=O)N[C@H](CO)[C@@H](C)O)NC1=O` [Octreotide], the “log P” value in data set [1] is on record as “around 1”.

As for `CC/C=C\C/C=C\C/C=C\C/C=C\C/C=C\C/C=C\CCC(=O)O[C@@H](C(=O)O[C@H]1C[C@@]2(O)[C@@H](OC(=O)c3ccccc3)[C@@H]3[C@]4(OC(C)=O)CO[C@@H]4C[C@H](O)[C@@]3(C)C(=O)[C@H](OC(C)=O)C(=C1C)C2(C)C)[C@@H](NC(=O)c1ccccc1)c1ccccc1` [Paclitaxel-DHA, paclitaxel docosahexaenoate], the “AUC0-t(parent)/AUC0-t(prodrug)” value in data set [2] (conversion prodrug to parent) worked out at 22.3%. Moreover, in data set [2], the “AUC0-t of paclitaxel (parent)” value came out at 73.3 ng·h/mL, the AUC0-t of prodrug was 402^e) hr * ng/mL, the “AUC0-∞ of paclitaxel (parent)” value turned out to be 97.2 ng·h/mL and the “AUC0-∞ of prodrug” value is listed as 643^f) hr * ng/mL. For the same molecule, in data set [2], the “Cmax of paclitaxel (parent)” value is given as 10.4 ng/mL, the Cmax of prodrug was 63.8^d) ng/mL, the “Tmax of paclitaxel (parent)” value is 2.25 h and the Tmax of prodrug is 4.50 h. Moreover, in data set [2], the “t1/2 of paclitaxel (parent)” value was determined as 11.6 h and the t1/2 of prodrug stood at 6.33 h.

Take `CC(=O)O[C@H]1C(=O)[C@@]2(C)[C@H]([C@H](OC(=O)c3ccccc3)[C@]3(O)C[C@H](OC(=O)[C@H](O)[C@@H](NC(=O)c4ccccc4)c4ccccc4)C(C)=C1C3(C)C)[C@]1(OC(C)=O)CO[C@@H]1C[C@@H]2O` [Paclitaxel]: in “in vivo”, the AUC(0-inf) is 973 ng·h/mL, the AUC(0-t) turned out to be 771 ng·h/mL, the peak level (Cmax) was 148 ng/mL and the Tmax was 2.5 h. In the data set “in vivo”, the half-life was 13.7 h.

Turning to `CCCCCCCCCCC(=O)O[C@H]1CC[C@H]2[C@@H]3CCC4=CC(=O)CC[C@]4(C)[C@H]3CC[C@]12C` [Testosterone undecanoate], the “log P” value in data set [1] is reported as “about 8.7”.

For the molecule `CC(C)c1cccc(C(C)C)c1O` [propofol, 2,6-diisopropylphenol], the oral bioavailability in data set [3] was at most 3%.
